The source of these data is the NIST ThermoML archive (doi:10.1016/j.jct.2012.09.019).

Numbers after ± are expanded uncertainties.

Data set [1] in a line: refractive index (Na D-line) (dimensionless). The conditions noted are these: 293.15 K; 101.33 kPa; Liquid; digital refractometer.
For data set [2] the following is noted: Crystal.

As to `CCCCCC(=O)O` [hexanoic acid], in data set [1], the refractive index – broadly, a measure of how strongly the sample bends light – was 1.41692 ± 0.0015. Besides, the Normal melting temperature in data set [2] (Heating/Cooling curves) is -2.4 ± 2 °C.
Regarding `CCCCCCCCCCCCCCCC` [hexadecane], in data set [1], the refractive index is listed as 1.43461 ± 0.0014. In addition, the Normal melting temperature in data set [2] (Heating/Cooling curves) is 18.1 ± 2 °C; in data set [2] (heating/cooling curves), 18.0 ± 2 °C.
With `C1CCCCC1` [cyclohexane], the refractive index in data set [1] amounted to 1.42631 ± 0.0014. Moreover, the Normal melting temperature in data set [2] (Heating/Cooling curves) came to 6.7 ± 2 °C.
On to `CCCCC(=O)O` [pentanoic acid], for which the refractive index in data set [1] stood at 1.40857 ± 0.0015. The Normal melting temperature in data set [2] (Heating/Cooling curves) is -34.4 ± 2 °C.
Regarding `CCCC(=O)O` [butanoic acid], the refractive index in data set [1] is 1.39808 ± 0.0014. In data set [2] (Heating/Cooling curves), the Normal melting temperature was -5.2 ± 2 °C.
As for `CCCCCCC(=O)O` [heptanoic acid], in data set [1], the refractive index amounted to 1.4229 ± 0.0014. The Normal melting temperature in data set [2] (Heating/Cooling curves) was -7.5 ± 2 °C.
`CCC(=O)O` [propanoic acid]: in data set [1], the refractive index was determined as 1.38682 ± 0.0014. Moreover, the Normal melting temperature in data set [2] (Heating/Cooling curves) is -20.8 ± 2 °C.
